Results taken from US20060069132A1, “Azolecarboxamide herbicides” (priority 2004, published 2006).

Tests used:
[1] = test system: morningglory; test: Test B pre-/postemergence herbicide test; assay type: in vivo, Ipomoea coccinea
Summary of the method: (§1)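 Response was scored visually 13 to 15 days after treatment against untreated greenhouse controls, 0 meaning no effect and 100 complete control. Formulations (solvent mixture plus surfactant) went onto soil after planting, onto foliage of 1- to 4-leaf plants, and onto 2-leaf plants in a flooded paddy set including rice and barnyardgrass.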

[2] = test system: velvetleaf; test: Test B pre-/postemergence herbicide test; assay type: in vivo, Abutilon theophrasti
Summary of the method: (§2)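 Pre: seeds sown, then sprayed. Post: 1–4-leaf plants (2–18 cm) sprayed at the same time. Paddy: flooded, treated at 2-leaf stage. Formulation: non-phytotoxic solvent with surfactant. Greenhouse 13–15 days; visual 0–100 score relative to controls.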

[3] = test system: wild oat; test: Test B postemergence herbicide test; assay type: in vivo, Avena fatua; conditions: scale 0 (no effect) to 100 (complete control); for Plant response rating, Oat, Wild: Postemergence, 500 g ai/ha, visual rating after 13 to 15 days; for Oat, Wild plant response rating: postemergence, 125 g ai/ha, visual rating
Summary of the method: (§3)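 Plants grow to 1- to 4-leaf stage (2–18 cm) for postemergence spraying, or to 2-leaf stage for the paddy test. Formulated compound is applied. Greenhouse holding lasts 13–15 days. Response is scored visually relative to controls, 0 no effect to 100 complete control; a dash means no result.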

[4] = test system: corn; test: Test B pre-/postemergence herbicide test; assay type: in vivo, Zea mays
Summary of the method: as §2

[5] = test system: cocklebur; test: Test B pre-/postemergence herbicide test; assay type: in vivo, Xanthium strumarium
Summary of the method: as §1

[6] = test system: pigweed; test: Test B pre-/postemergence herbicide test; assay type: in vivo, Amaranthus retroflexus
Summary of the method: as §2

[7] = test system: barnyardgrass; test: Test B pre-/postemergence herbicide test; assay type: in vivo, Echinochloa crus-galli
Summary of the method: as §1

[8] = test system: large crabgrass; test: Test B pre-/postemergence herbicide test; assay type: in vivo, Digitaria sanguinalis
Summary of the method: as §2

[9] = test system: lambsquarters; test: Test B pre-/postemergence herbicide test; assay type: in vivo, Chenopodium album
Summary of the method: as §2

[10] = test system: Surinam grass; test: Test B pre-/postemergence herbicide test; assay type: in vivo, Urochloa decumbens
Summary of the method: as §2

[11] = test system: giant foxtail; test: Test B pre-/postemergence herbicide test; assay type: in vivo, Setaria faberi
Summary of the method: as §2

[12] = test system: rice; test: Test B flooded paddy test; assay type: in vivo, Oryza sativa; conditions: 1000 g ai/ha, visual rating, scale 0 to 100 (0 no effect, 100 complete control), 13 to 15 days
Summary of the method: as §3

[13] = test system: small flower umbrella sedge; test: Test B flooded paddy test; assay type: in vivo, Cyperus difformis; conditions: 1000 g ai/ha, visual rating, scale 0 to 100 (0 no effect, 100 complete control), 13 to 15 days
Summary of the method: (§4)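 Visual control ratings, 0–100 versus untreated controls, taken after 13 to 15 days in the greenhouse. Blackgrass received a postemergence spray at the 1- to 4-leaf stage (2–18 cm); ducksalad, umbrella sedge and barnyardgrass were flooded-paddy treated at 2 leaves.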

[14] = test system: wheat; test: Test B postemergence herbicide test; assay type: in vivo, Triticum aestivum; parameters: key to Wheat plant response rating: 0 = no effect, 100 = complete control; conditions: scale 0 (no effect) to 100 (complete control); for Plant response rating, Wheat: Postemergence, 500 g ai/ha, visual rating after 13 to 15 days; for Wheat plant response rating: postemergence, 125 g ai/ha, visual rating
Summary of the method: as §3

[15] = test system: barnyardgrass; test: Test B flooded paddy test; assay type: in vivo, Echinochloa crus-galli; conditions: 1000 g ai/ha, visual rating, scale 0 to 100 (0 no effect, 100 complete control), 13 to 15 days
Summary of the method: as §4

[16] = Postemergence, 500 g ai/ha, visual rating after 13 to 15 days, scale 0 (no effect) to 100 (complete control)
[17] = Preemergence, 500 g ai/ha, scale 0 to 100
[18] = postemergence, 125 g ai/ha, visual rating, scale 0 (no effect) to 100 (complete control)
[19] = preemergence, 125 g ai/ha, 0 to 100 scale, 0 is no effect, 100 is complete control
[20] = 500 g ai/ha, visual rating 0-100, 0 no effect, 100 complete control, preemergence

SMILES: C#CCn1nc(C(C)(C)C)cc1C(=O)Nc1cccc(C(=O)NCC)c1 [Compound 50]
- Plant response rating, Morningglory [1, 16]: 70
- Morningglory plant response rating [1, 17]: 40
- Morningglory plant response rating [1, 18]: 70
- Plant response rating, Morningglory [1, 19]: 10
- Plant response rating, Velvetleaf [2, 16]: 60
- Velvetleaf plant response rating [2, 17]: 50
- Velvetleaf plant response rating [2, 18]: 40
- Plant response rating, Velvetleaf [2, 19]: 20
- Plant response rating, Oat, Wild [3]: 20
- Oat, Wild plant response rating [3]: 20
- Plant response rating, Corn [4, 16]: 40
- Corn plant response rating [4, 17]: 10
- Corn plant response rating [4, 18]: 30
- Plant response rating, Corn [4, 19]: 0
- Plant response rating, Cocklebur [5, 16]: 90
- Cocklebur plant response rating [5, 17]: 0
- Cocklebur plant response rating [5, 18]: 90
- Plant response rating, Cocklebur [5, 19]: 0
- Plant response rating, Pigweed [6, 16]: 100
- Pigweed plant response rating [6, 17]: 100
- Pigweed plant response rating [6, 18]: 80
- Plant response rating, Pigweed [6, 19]: 100
- Plant response rating, Barnyardgrass [7, 16]: 70
- Barnyardgrass plant response rating [7, 17]: 80
- Barnyardgrass plant response rating [7, 18]: 50
- Plant response rating, Barnyardgrass [7, 19]: 40
- Plant response rating, Crabgrass, Large [8, 16]: 30
- Crabgrass, Large plant response rating [8, 17]: 90
- Crabgrass, Large plant response rating [8, 18]: 10
- Plant response rating, Crabgrass, Large [8, 19]: 30
- Plant response rating, Lambsquarters [9, 16]: 90
- Lambsquarters plant response rating [9, 17]: 100
- Lambsquarters plant response rating [9, 18]: 80
- Plant response rating, Lambsquarters [9, 19]: 90
- Plant response rating, Surinam Grass [10, 16]: 40
- Surinam Grass plant response rating [10, 17]: 50
- Surinam Grass plant response rating [10, 18]: 30
- Plant response rating, Surinam Grass [10, 19]: 20
- Plant response rating, Foxtail, Giant [11, 16]: 30
- Foxtail, Giant plant response rating [11, 17]: 100
- Foxtail, Giant plant response rating [11, 18]: 30
- Plant response rating, Foxtail, Giant [11, 19]: 20
- Rice plant response rating [12]: 60
- Sedge, Umbrella plant response rating [13]: 80
- Plant response rating, Wheat [14]: 30
- Wheat plant response rating [14]: 30
- Barnyardgrass plant response rating [15]: 70

SMILES: CCOC(=O)c1cc(NC(=O)c2cc(C(C)(C)C)nn2CC)ccc1OC [Compound 96]
- Plant response rating, Morningglory [1, 20]: 10
- Plant response rating, Morningglory [1, 16]: 0
- Morningglory plant response rating [1, 18]: 0
- Plant response rating, Morningglory [1, 19]: 0
- Plant response rating, Velvetleaf [2, 20]: 90
- Plant response rating, Velvetleaf [2, 16]: 80
- Velvetleaf plant response rating [2, 18]: 70
- Plant response rating, Velvetleaf [2, 19]: 50
- Plant response rating, Oat, Wild [3]: 20
- Oat, Wild plant response rating [3]: 20
- Plant response rating, Corn [4, 20]: 70
- Plant response rating, Corn [4, 16]: 20
- Corn plant response rating [4, 18]: 10
- Plant response rating, Corn [4, 19]: 40
- Plant response rating, Cocklebur [5, 20]: 0
- Plant response rating, Cocklebur [5, 16]: 100
- Cocklebur plant response rating [5, 18]: 90
- Plant response rating, Cocklebur [5, 19]: 0
- Plant response rating, Pigweed [6, 20]: 100
- Plant response rating, Pigweed [6, 16]: 100
- Pigweed plant response rating [6, 18]: 70
- Plant response rating, Pigweed [6, 19]: 100
- Plant response rating, Barnyardgrass [7, 20]: 90
- Plant response rating, Barnyardgrass [7, 16]: 50
- Barnyardgrass plant response rating [7, 18]: 0
- Plant response rating, Barnyardgrass [7, 19]: 70
- Plant response rating, Crabgrass, Large [8, 20]: 100
- Plant response rating, Crabgrass, Large [8, 16]: 50
- Crabgrass, Large plant response rating [8, 18]: 40
- Plant response rating, Crabgrass, Large [8, 19]: 20
- Plant response rating, Lambsquarters [9, 20]: 100
- Plant response rating, Lambsquarters [9, 16]: 100
- Lambsquarters plant response rating [9, 18]: 100
- Plant response rating, Lambsquarters [9, 19]: 100
- Plant response rating, Surinam Grass [10, 20]: 80
- Plant response rating, Surinam Grass [10, 16]: 30
- Surinam Grass plant response rating [10, 18]: 20
- Plant response rating, Surinam Grass [10, 19]: 20
- Plant response rating, Foxtail, Giant [11, 20]: 90
- Plant response rating, Foxtail, Giant [11, 16]: 50
- Foxtail, Giant plant response rating [11, 18]: 30
- Plant response rating, Foxtail, Giant [11, 19]: 60
- Rice plant response rating [12]: 70
- Sedge, Umbrella plant response rating [13]: 90
- Plant response rating, Wheat [14]: 20
- Wheat plant response rating [14]: 10
- Barnyardgrass plant response rating [15]: 80
